Experimental data taken from ChEMBL document CHEMBL4431322, “Timosaponin AIII inhibits migration and invasion of A549 human non-small-cell lung cancer cells via attenuations of MMP-2 and MMP-9 by inhibitions of ERK1/2, Src/FAK and β-catenin signaling pathways” (2016).
Activity calls are given as the source filed them. No cut-off for these calls is given here.

Assays:
[1] = tested on: A549; assay: Cytotoxicity against human A549 cells assessed as cell survival up to 10 uM incubated for 24 hrs by CCK8 assay; format: functional
[2] = tested on: A549; assay: Induction of apoptosis in human A549 cells assessed as dead cells at 9 uM after 24 hrs by flow cytometry (reference value: 0%); format: functional
[3] = target: T1, Catenin beta-1 (Homo sapiens) (UniProt P35222); assay: Inhibition of beta-catenin signalling in human A549 cells assessed as reduction in beta-catenin level at 3 to 9 uM after 24 hrs by Western blot analysis; format: cell-based
T1 sequence (whole entry): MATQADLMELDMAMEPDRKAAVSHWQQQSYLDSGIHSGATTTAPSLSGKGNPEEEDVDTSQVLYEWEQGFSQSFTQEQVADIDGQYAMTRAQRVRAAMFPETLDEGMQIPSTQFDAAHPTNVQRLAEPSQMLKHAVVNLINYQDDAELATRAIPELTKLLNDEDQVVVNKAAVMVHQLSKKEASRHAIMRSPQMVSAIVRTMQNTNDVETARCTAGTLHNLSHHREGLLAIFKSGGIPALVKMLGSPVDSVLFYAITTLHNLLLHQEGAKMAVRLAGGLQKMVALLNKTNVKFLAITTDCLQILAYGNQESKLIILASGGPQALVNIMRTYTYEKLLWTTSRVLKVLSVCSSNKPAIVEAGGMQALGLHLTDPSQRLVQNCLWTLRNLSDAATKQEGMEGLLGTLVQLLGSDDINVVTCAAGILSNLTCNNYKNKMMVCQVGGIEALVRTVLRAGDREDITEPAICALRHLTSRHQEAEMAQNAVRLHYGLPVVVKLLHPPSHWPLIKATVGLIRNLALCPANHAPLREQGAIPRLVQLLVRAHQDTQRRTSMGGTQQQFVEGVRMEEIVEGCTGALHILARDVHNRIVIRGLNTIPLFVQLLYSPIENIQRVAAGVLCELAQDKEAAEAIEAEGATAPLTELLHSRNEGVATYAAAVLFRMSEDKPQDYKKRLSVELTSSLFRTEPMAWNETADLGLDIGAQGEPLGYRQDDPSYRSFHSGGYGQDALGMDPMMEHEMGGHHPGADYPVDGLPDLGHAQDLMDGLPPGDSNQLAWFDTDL

[4] = tested on: A549; assay: Inhibition of MMP9 mRNA expression in human A549 cells at 3 uM after 48 hrs by RT-PCR analysis; format: functional, cell-based
[5] = tested on: NCI-H1299; assay: Antimigratory activity in human H1299 cells at 1 to 6 uM incubated for 24 hrs by wound healing assay; format: functional, cell-based
[6] = target: Matrix metalloproteinase-9 (Homo sapiens) (UniProt P14780); assay: Inhibition of MMP9 activity in human A549 cells at 3 to 9 uM after 48 hrs by gelatin zymography; format: cell-based
Chain of Matrix metalloproteinase-9 (Homo sapiens) (P14780 whole entry): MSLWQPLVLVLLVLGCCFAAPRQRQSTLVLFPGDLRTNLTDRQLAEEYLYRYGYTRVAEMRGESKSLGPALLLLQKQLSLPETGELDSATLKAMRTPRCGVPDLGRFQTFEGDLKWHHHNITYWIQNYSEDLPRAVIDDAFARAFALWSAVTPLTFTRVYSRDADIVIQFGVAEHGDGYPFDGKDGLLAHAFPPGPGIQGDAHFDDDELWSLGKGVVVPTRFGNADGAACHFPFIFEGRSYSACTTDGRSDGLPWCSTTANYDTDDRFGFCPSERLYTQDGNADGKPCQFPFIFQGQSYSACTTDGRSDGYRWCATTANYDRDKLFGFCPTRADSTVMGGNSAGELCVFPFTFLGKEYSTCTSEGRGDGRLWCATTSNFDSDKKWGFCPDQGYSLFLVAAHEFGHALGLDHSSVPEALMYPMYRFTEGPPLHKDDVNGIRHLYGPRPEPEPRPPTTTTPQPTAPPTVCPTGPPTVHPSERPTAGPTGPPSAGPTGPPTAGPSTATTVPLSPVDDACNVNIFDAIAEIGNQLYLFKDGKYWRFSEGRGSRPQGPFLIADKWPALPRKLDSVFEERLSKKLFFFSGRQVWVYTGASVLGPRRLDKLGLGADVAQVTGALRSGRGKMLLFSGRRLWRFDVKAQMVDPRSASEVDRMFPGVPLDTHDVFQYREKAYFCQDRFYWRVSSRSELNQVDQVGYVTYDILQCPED

[7] = target: Proto-oncogene tyrosine-protein kinase Src (Homo sapiens) (UniProt P12931); assay: Inhibition of c-Src phosphorylation in human A549 cells at 3 to 9 uM after 24 hrs by Western blot analysis; format: cell-based
Chain of Proto-oncogene tyrosine-protein kinase Src (Homo sapiens) (P12931 2-536 limits assumed): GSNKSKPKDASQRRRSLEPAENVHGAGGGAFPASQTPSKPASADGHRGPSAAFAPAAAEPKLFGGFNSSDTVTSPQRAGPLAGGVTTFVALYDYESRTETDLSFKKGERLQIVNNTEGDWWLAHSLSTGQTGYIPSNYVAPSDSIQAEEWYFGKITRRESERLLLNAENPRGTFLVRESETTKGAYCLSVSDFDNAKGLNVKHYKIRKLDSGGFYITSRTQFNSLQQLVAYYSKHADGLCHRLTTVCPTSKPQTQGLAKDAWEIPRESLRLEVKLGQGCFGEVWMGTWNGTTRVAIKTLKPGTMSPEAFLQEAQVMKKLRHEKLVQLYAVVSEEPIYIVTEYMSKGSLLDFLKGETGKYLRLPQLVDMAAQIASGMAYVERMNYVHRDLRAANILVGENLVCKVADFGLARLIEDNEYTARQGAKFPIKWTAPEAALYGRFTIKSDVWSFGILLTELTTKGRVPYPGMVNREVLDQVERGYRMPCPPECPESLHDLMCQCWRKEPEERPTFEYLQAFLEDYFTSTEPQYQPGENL

[8] = tested on: A549; assay: Cell cycle arrest in human A549 cells assessed as accumulation at G2/M phase at 9 uM after 24 hrs by flow cytometry (reference value: 15.1%); format: functional
[9] = tested on: NCI-H1299; assay: Inhibition of MMP2 mRNA expression in human H1299 cells at 3 uM after 48 hrs by RT-PCR analysis; format: functional, cell-based
[10] = tested on: A549; assay: Cell cycle arrest in human A549 cells assessed as accumulation at G0/G1 phase at 9 uM after 24 hrs by flow cytometry (reference value: 66.5%); format: functional
[11] = tested on: A549; assay: Inhibition of cell invasion in human A549 cells at 1 to 3 uM after 24 hrs by Boyden's chamber transwell invasion assay; format: functional, cell-based
[12] = tested on: A549; assay: Induction of apoptosis in human A549 cells assessed as live cells at 9 uM after 24 hrs by flow cytometry (reference value: 76.65%); format: functional
[13] = target: Matrix metalloproteinase-9 (Homo sapiens) (UniProt P14780); assay: Inhibition of MMP9 activity in human H1299 cells at 3 uM after 48 hrs by gelatin zymography; format: cell-based
[14] = target: MAP kinase p38 (Homo sapiens) (UniProt O15264+Q15759+Q16539+P53778); assay: Inhibition of p38 phosphorylation in human A549 cells at 3 to 9 uM after 24 hrs by Western blot analysis; format: cell-based
[15] = target: 72 kDa type IV collagenase (Homo sapiens) (UniProt P08253); assay: Inhibition of MMP2 activity in human A549 cells at 3 to 9 uM after 48 hrs by gelatin zymography; format: cell-based
Chain of 72 kDa type IV collagenase (Homo sapiens) (P08253 110-660 limits assumed): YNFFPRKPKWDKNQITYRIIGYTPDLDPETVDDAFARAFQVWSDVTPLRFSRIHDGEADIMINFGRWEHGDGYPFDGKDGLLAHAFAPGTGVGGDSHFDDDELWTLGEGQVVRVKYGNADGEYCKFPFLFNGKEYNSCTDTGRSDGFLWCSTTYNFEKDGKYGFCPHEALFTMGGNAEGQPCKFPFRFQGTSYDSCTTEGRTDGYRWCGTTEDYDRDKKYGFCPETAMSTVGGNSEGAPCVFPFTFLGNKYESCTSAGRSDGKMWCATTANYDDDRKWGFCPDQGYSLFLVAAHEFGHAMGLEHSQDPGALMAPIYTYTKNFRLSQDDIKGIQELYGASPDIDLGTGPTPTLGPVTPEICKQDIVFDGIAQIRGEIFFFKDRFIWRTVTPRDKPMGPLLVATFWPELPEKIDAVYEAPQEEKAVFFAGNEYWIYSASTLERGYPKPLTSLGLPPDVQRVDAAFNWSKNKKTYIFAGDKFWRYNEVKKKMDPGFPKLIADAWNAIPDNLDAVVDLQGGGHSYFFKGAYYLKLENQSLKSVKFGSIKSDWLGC

[16] = tested on: A549; assay: Cell cycle arrest in human A549 cells assessed as accumulation at S phase at 9 uM after 24 hrs by flow cytometry (reference value: 18.3%); format: functional
[17] = tested on: NCI-H1299; assay: Inhibition of cell invasion in human H1299 cells at 1 to 3 uM after 24 hrs by Boyden's chamber transwell invasion assay; format: functional, cell-based
[18] = tested on: A549; assay: Induction of apoptosis in human A549 cells assessed as late apoptotic cells at 9 uM after 24 hrs by flow cytometry (reference value: 7.9%); format: functional
[19] = tested on: A549; assay: Antimigratory activity in human A549 cells incubated for 24 hrs by wound healing assay; format: functional, cell-based
[20] = target: c-Jun N-terminal kinase, JNK (Homo sapiens) (UniProt P45983+P53779+P45984); assay: Inhibition of JNK phosphorylation in human A549 cells at 3 to 9 uM after 24 hrs by Western blot analysis; format: cell-based
[21] = target: Focal adhesion kinase 1 (Homo sapiens) (UniProt Q05397); assay: Inhibition of FAK phosphorylation in human A549 cells at 3 to 9 uM after 24 hrs by Western blot analysis; format: cell-based
Chain of Focal adhesion kinase 1 (Homo sapiens) (Q05397 2-1052 limits assumed): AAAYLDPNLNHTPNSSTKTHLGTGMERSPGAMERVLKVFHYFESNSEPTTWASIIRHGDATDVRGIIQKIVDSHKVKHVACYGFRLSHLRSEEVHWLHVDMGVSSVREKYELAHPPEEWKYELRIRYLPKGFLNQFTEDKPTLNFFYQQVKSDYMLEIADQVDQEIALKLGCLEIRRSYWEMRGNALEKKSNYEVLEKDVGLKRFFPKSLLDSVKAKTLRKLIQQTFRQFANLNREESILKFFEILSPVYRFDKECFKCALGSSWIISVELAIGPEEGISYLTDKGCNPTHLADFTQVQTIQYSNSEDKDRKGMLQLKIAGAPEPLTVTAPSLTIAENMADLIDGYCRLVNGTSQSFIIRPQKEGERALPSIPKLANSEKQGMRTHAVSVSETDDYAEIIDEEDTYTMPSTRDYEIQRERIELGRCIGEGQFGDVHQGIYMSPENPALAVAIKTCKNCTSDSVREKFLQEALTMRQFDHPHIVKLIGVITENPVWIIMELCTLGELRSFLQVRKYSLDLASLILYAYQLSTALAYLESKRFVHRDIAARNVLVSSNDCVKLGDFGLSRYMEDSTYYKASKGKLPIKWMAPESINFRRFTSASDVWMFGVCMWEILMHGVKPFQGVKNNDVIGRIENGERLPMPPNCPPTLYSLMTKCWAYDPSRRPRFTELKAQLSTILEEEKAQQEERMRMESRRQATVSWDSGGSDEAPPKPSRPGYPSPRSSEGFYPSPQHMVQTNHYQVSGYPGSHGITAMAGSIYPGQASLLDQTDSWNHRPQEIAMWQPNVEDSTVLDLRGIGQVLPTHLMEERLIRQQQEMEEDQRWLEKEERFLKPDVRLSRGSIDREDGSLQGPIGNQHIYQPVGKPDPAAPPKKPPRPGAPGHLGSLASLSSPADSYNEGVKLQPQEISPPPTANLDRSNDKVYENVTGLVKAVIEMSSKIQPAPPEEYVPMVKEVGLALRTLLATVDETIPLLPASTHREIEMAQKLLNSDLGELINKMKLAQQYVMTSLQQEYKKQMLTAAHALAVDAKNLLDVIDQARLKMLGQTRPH

[22] = tested on: NCI-H1299; assay: Inhibition of MMP9 mRNA expression in human H1299 cells at 3 uM after 48 hrs by RT-PCR analysis; format: functional, cell-based
[23] = tested on: A549; assay: Induction of apoptosis in human A549 cells assessed as early apoptotic cells at 9 uM after 24 hrs by flow cytometry (reference value: 15.45%); format: functional
[24] = target: 72 kDa type IV collagenase (Homo sapiens) (UniProt P08253); assay: Inhibition of MMP2 activity in human H1299 cells at 3 uM after 48 hrs by gelatin zymography; format: cell-based
[25] = target: Mitogen-activated protein kinase; ERK1/ERK2 (Homo sapiens) (UniProt P27361+P28482); assay: Inhibition of ERK1/2 phosphorylation in human A549 cells after 24 hrs by Western blot analysis; format: cell-based
Chain of Mitogen-activated protein kinase; ERK1/ERK2 (Homo sapiens) (P27361 whole entry, looked up): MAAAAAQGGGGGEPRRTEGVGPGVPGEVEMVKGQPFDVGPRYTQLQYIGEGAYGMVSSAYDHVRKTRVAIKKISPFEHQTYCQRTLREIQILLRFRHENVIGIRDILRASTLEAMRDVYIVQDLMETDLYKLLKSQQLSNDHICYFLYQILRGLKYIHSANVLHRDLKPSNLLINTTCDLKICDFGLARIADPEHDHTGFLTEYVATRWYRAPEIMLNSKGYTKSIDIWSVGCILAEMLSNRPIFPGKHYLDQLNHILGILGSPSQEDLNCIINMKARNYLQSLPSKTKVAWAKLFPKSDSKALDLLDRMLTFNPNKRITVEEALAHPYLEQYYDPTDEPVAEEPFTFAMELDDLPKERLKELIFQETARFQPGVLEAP
Chain of Mitogen-activated protein kinase; ERK1/ERK2 (Homo sapiens) (P28482 whole entry, looked up): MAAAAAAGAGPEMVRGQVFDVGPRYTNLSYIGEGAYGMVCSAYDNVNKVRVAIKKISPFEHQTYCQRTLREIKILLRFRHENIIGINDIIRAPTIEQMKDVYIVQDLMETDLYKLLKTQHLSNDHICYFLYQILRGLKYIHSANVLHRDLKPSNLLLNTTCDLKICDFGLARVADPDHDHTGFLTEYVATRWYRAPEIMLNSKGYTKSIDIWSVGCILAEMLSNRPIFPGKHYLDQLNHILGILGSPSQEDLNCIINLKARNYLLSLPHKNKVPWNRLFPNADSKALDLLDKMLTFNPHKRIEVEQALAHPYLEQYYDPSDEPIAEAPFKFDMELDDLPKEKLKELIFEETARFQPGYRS

[26] = tested on: A549; assay: Inhibition of MMP2 mRNA expression in human A549 cells at 3 uM after 48 hrs by RT-PCR analysis; format: functional, cell-based

C[C@H]1CC[C@@]2(OC1)O[C@H]1C[C@H]3[C@@H]4CC[C@@H]5C[C@@H](O[C@@H]6O[C@H](CO)[C@@H](O)[C@H](O)[C@H]6O[C@@H]6O[C@H](CO)[C@@H](O)[C@H](O)[C@H]6O)CC[C@]5(C)[C@H]4CC[C@]3(C)[C@H]1[C@@H]2C
Survival [1]: <50%
Activity [2]: 0%
inhibition [3]: Active
inhibition [4]: Active
inhibition [5]: Active
inhibition [6]: Active
inhibition [7]: Active
Activity [8]: 14%
inhibition [9]: Active
Activity [10]: 74.8%
inhibition [11]: Active
Activity [12]: 54.15%
inhibition [13]: Active
inhibition [14]: inactive
inhibition [15]: Active
Activity [16]: 11.2%
inhibition [17]: Active
Activity [18]: 16.6%
inhibition [19]: Dose-dependent effect
inhibition [20]: inactive
inhibition [21]: Active
inhibition [22]: Active
Activity [23]: 29.25%
inhibition [24]: Active
inhibition [25]: Dose-dependent effect
inhibition [26]: Active
